Data from patent US12527837B2, “Peptide for use in the prevention and/or treatment of a disease caused by a virus affecting the respiratory tract” (priority 2020, dated 2026).
Like-named read-outs stand apart in the source and are kept apart here. No end group written: not given here.

Assays:
[1] = tested on: standardised antigens from H1N1 virus; experiment: Haemagglutination Inhibition Assay (HAI) with standardised antigens of influenza virus subtype H1N1; assay type: cell-based; settings: for activity of lysine-acetylated derivatives against the influenza virus compared with the parent peptides of example 2.1: HAI with standardised antigens
[2] = tested on: MDCK cells
[3] = tested on: live virus from subtype H3N2 of influenza virus; experiment: HAI with live influenza virus subtype H3N2; assay type: cell-based; settings: live virus 4 HAU/25 μl; 1.5% v/v turkey red blood cells; FIG. 4B
[4] = tested on: live virus from subtype H1N1 of influenza virus; experiment: HAI with live influenza virus subtype H1N1; assay type: cell-based; settings: live virus 4 HAU/25 μl; 1.5% v/v turkey red blood cells; FIG. 4A
[5] = tested on: human coronavirus HcoV-OC43; experiment: HAI with heat-inactivated viral lysate of HcoV-OC43; assay type: cell-based; settings: heat-inactivated viral lysate 4 UHA/25 μl; 1.5% v/v turkey RBC; FIG. 5
[6] = tested on: measles virus; experiment: HAI with heat-inactivated viral lysate of measles virus; assay type: cell-based; settings: heat-inactivated viral lysate 4 UHA/25 μl; 1.5% v/v turkey RBC; FIG. 5
[7] = tested on: human coronavirus SARS-CoV-2; experiment: HAI with heat-inactivated viral lysate of SARS-CoV-2; assay type: cell-based; settings: heat-inactivated viral lysate 4 UHA/25 μl; 1.5% v/v turkey RBC; FIG. 5
[8] = MDCK cells, 20 hours, MTS, FIG. 10
[9] = MDCK cells, 20 hours, MTS, highest concentration tested 1 mg/ml

With “LEK*GLDGAKK AVGGLGKLGKDAVEDLESVGKGAVHDVKDVLD (LEK(Ac)GLDGAKKAVGGLGKLGKDAVEDLESVGKGAVHDVKDVLD) [SEQ ID No.: 19]” the “activity of lysine-acetylated derivatives against the influenza virus compared with the parent peptides of example 2.1” value [1] was “the same activity”.
For “SSLLEKGLDGAKKAVGGLGKLGKDAVEDLESVGKGAVHDVKDVLD [SEQ ID No.: 3, SSLLEKGLDGAKKAVGGLGKLGKDAVEDLESVGKGAVHDVKDVLD]”, the “peptides that cause significant toxicity in cells” value [2, 8] was “none” and the “cells in the culture that exhibited toxicity” value [2, 9] was 20%.
For “LEK*GLDGAKK AVGGLGKLGKDAVEDLESVGKGAVHDVKDVL (LEK(Ac)GLDGAKKAVGGLGKLGKDAVEDLESVGKGAVHDVKDVL) [SEQ ID No.: 29]”, the “activity of lysine-acetylated derivatives against the influenza virus compared with the parent peptides of example 2.1” value [1] was “the same activity”.
In the case of “LEKGLDGAKKAVGGLGKLGKDAVEDLESVGKGAVHDVKDVLDSVL [SEQ ID No.: 2, LEKGLDGAKKAVGGLGKLGKDAVEDLESVGKGAVHDVKDVLDSVL]”, the “peptides that cause significant toxicity in cells” value [2, 8] is reported as “none” and the “cells in the culture that exhibited toxicity” value [2, 9] is reported as 20%.
In the case of “SSLLEK*GLDG AKKAVGGLGK LGKDA (SSLLEK(Ac)GLDGAKKAVGGLGKLGKDA) [SEQ ID No.: 28]”, the “activity of lysine-acetylated derivatives against the influenza virus compared with the parent peptides of example 2.1” value [1] is reported as “the same activity”.
In the case of “SSLLEK*GLDG AKKAVGGLGKLGKDAVEDLESVGKGAVHDVKDVLDSV (SSLLEK(Ac)GLDGAKKAVGGLGKLGKDAVEDLESVGKGAVHDVKDVLDSV) [SEQ ID No.: 22]”, the “activity against the H3N2 subtype of live influenza virus (HAI)” value (shortened to “activity against the H3N2 subtype”) [3] is reported as “had activity”, the “activity against the H1N1 subtype of live influenza virus (HAI)” value (“activity against the H1N1 subtype” below) [4] is reported as “had activity” and the “activity against HcoV-OC43 (preventing adhesion of the virus to RBCs)” value [5] is reported as “active”. The “activity against measles virus (preventing adhesion of the virus to RBCs)” value [6] was “active” and the “activity against SARS-CoV-2 (preventing adhesion of the virus to RBCs)” value [7] was “active”.
For “SSLLEK*GLDG AKKAVGGLGKLGKDAVEDLESVGKGAVHDVKDVLDSVL (SSLLEK(Ac)GLDGAKKAVGGLGKLGKDAVEDLESVGKGAVHDVKDVLDSVL) [SEQ ID No.: 23]”, the “activity of lysine-acetylated derivatives against the influenza virus compared with the parent peptides of example 2.1” value [1] was “the same activity”, the “activity against the H3N2 subtype” value [3] was “had activity” and the “activity against the H1N1 subtype” value [4] was “had activity”. The “activity against HcoV-OC43 (preventing adhesion of the virus to RBCs)” value [5] was “active”, the “activity against measles virus (preventing adhesion of the virus to RBCs)” value [6] was “active” and the “activity against SARS-CoV-2 (preventing adhesion of the virus to RBCs)” value [7] was “active”.
“SSLLEK*GLDG AKKAVGGLGKLGKDAVEDLESVGKGAVHDVKDVLD (SSLLEK(Ac)GLDGAKKAVGGLGKLGKDAVEDLESVGKGAVHDVKDVLD) [SEQ ID No.: 21]” was tested, and the “activity of lysine-acetylated derivatives against the influenza virus compared with the parent peptides of example 2.1” value [1] was “the same activity” and the “activity against the H3N2 subtype” value [3] was “had activity”.
For “RRKKAAVALLPAVLLALLAP [EB, RRKKAAVALL PAVLLALLAP, reference compound]”, the “cytotoxicity observed in the culture” value [2] was “total cell destruction” and the “cytotoxicity of the cells in the culture” value [2] was 50%.
With “LEK*GLDGAKK AVGGLGKLGKDAVEDLESVGKGAVHDVKDVLDSVL (LEK(Ac)GLDGAKKAVGGLGKLGKDAVEDLESVGKGAVHDVKDVLDSVL) [SEQ ID No.: 20]” the “activity of lysine-acetylated derivatives against the influenza virus compared with the parent peptides of example 2.1” value [1] was “the same activity”, the “activity against the H3N2 subtype” value [3] was “had activity” and the “activity against the H1N1 subtype” value [4] was “had activity”.
“LEKGLDGAKKAVGGLGKLGKDAVEDLESVGKGAVHDVKDVLD (LEKGLDGAKKAVGGLGKLGKDAVEDLESVGKGAVHDVKDVLD; LEK-42) [SEQ ID No.: 1, dermcidin fragment]” was tested, and the “activity against standardised antigens of H1N1 subtype of influenza virus (inhibiting haemagglutination)” value ([1]; H1N1 antigens 8 HAU/50 μl, 5% v/v turkey red blood cells, FIG. 2 and FIG. 3) was “had activity”.
With “SSLLEKGLDGAKKAVGGLGKLGKDAVEDLESVGKGAVHDVKDVLDSVL [SEQ ID No.: 5, SSLLEKGLDGAKKAVGGLGKLGKDAVEDLESVGKGAVHDVKDVLDSVL]” the “cells in the culture that exhibited toxicity” value [2] was 20% and the “peptides that cause significant toxicity in cells” value [2] was “none”.
